Literature values in patent US11278709B1, “Drug delivery device and methods for using same” (Pocket Naloxone Corp., priority 2021, dated 2022).

Conditions: 4 mg dose via a nasal spray

## C=CCN1CC[C@]23c4c5ccc(O)c4O[C@H]2C(=O)CC[C@@]3(O)[C@H]1C5 [naloxone]
  AUClast: 7.95 ng·h/mL
  Cmax: 4.83 ng/mL
